Data as given in the NIST ThermoML archive (doi:10.1016/j.jct.2017.09.006).
± gives the expanded uncertainty stated by the source.

Legend:
[1] = Molar enthalpy of transition or fusion; conditions: Crystal; DSC
[2] = Crystal; DTA

SMILES | Molar enthalpy of transition or fusion [1] [kcal/mol] | Normal melting temperature [2] [°C]
Cc1ccc2ccc(C)cc2c1 [2,7-dimethylnaphthalene] | 6.05 ± 0.263 | 95.0 ± 0.5
COC(=O)c1cccc(C(=O)OC)c1 [dimethyl 1,3-benzenedicarboxylate] | 6.67 ± 0.167 | 67.2 ± 0.5
